Laboratory results as given in patent US20030073850A1, “4-Imidazole derivatives of benzyl and restricted benzyl sulfonamides, sulfamides, ureas, carbamates, and amides and their use” (priority 1998, published 2003).
Where a name gives a salt, the structure may show the parent alone. Read-outs that look alike come from different tables or passages of the source.

What was measured:
anesthetized dogs [1] = experiment: Mean arterial pressure (MAP) in anesthetized dogs; type: in vivo, dog; details: iv dose causing a maximum increase in MAP of 20 mm Hg, anesthetized female Beagle dogs
Source text: (§1) Female Beagle dogs (Marshall Farms, North Rose, N.Y.) greater that 2 years of age and weighing between 12 and 15 kg were used in these studies. At least 2 weeks prior to any agonist dosing, dogs were instrumented for the chronic measurement of arterial blood pressure by implanting a telemetry transducer/transmitter (TA11PA-C40, Data Sciences International, St. Paul, Minn.) into a carotid artery.
(§2) On the test day, dogs fasted since the previous afternoon were pre-anesthetized with thiopental sodium 15 mg/kg i.v. (Pentothal™, Abbott) and intubated. Anesthesia was maintained by allowing the dog to spontaneously breathe a mixture of isoflurane (2.5 to 3 volume %) and oxygen delivered by a Narkomed Standard anesthesia system (North American Drager, Telford, Pa.). An Abbocath-T™ i.v. catheter (18-G, Abbott) was inserted into the cephalic vein for the administration of agonists. A telemetry receiver (RA1310, DataSciences) was placed under the head of each dog and was interfaced to a computerized data acquisition system (Modular Instruments Inc.(MI2), Malvern, Pa.) which allowed for the continuous calibrated recording of arterial blood pressure which was electronically filtered to determine its mean value (MAP).
(§3) From the resulting dose response curve, an ED5 value, for the dose causing a maximum increase in IUP of 5 mm Hg, could be estimated. An ED20 value for the dose causing a maximum increase in MAP of 20 mm Hg could also be estimated. A selectivity ratio of MAP ED20 vs. IUP ED, was calculated.

[2] = target: T1, α1d (rat receptor expressed in mouse fibroblasts) (Rattus norvegicus, UniProt P23944); experiment: Radioligand binding, [3H]-prazosin, α1d
T1 construct: expressed in transfected cells; host or cells: mouse fibroblasts
T1 sequence (P23944 1-561): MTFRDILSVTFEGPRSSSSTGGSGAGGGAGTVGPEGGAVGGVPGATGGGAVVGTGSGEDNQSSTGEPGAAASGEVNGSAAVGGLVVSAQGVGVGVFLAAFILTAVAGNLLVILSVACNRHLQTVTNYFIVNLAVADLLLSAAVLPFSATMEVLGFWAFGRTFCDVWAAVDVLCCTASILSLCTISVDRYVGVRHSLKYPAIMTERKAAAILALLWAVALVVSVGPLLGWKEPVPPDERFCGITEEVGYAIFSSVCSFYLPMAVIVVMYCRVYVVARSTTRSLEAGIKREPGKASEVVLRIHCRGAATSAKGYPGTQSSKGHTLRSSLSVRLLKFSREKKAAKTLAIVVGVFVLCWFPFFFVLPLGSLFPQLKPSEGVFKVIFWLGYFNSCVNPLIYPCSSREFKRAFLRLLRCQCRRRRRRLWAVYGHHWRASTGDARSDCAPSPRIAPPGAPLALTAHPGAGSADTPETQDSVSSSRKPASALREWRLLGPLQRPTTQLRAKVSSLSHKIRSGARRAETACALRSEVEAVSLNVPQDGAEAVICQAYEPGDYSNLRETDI
Procedure: (§4) For purposes of discussing a, adrenoceptor subtypes, the IUPHAR convention of using lower case letters to define molecular clones and upper case letters to indicate pharmacologically defined adrenoceptors has been followed. Compounds of formula I were evaluated in radioligand binding assays specific for α1A (rat submaxillary gland), α1b (hamster receptor expressed in mouse fibroblasts) and α1d (rat receptor expressed in mouse fibroblasts) using [^3H]-prazosin as the radioligand as described in Knepper, et al. J. Pharm.

[3] = target: T2, α1A (rat submaxillary gland) (Rattus norvegicus, UniProt P43140); experiment: Radioligand binding, [3H]-prazosin, α1A
T2 construct: α1A (rat submaxillary gland); from tissue; host or cells: rat submaxillary gland
T2 sequence (P43140 1-466): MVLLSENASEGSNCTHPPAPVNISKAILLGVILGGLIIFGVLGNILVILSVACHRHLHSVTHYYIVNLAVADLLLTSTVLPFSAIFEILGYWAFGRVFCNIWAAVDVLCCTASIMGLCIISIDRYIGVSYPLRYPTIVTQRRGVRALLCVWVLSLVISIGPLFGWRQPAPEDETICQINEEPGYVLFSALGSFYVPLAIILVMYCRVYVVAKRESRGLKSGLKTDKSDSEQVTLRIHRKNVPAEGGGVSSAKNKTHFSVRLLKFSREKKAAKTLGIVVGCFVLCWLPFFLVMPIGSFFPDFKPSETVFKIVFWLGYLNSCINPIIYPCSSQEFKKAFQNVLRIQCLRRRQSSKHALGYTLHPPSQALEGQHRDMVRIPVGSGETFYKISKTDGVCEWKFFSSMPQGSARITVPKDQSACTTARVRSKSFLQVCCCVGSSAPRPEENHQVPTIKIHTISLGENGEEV
Procedure: as §4

anesthetized dogs [4] = experiment: Intraurethral pressure (IUP) in anesthetized dogs; type: in vivo, dog; details: for ED (5 mm Hg): Canis lupus familiaris, read-out: Mean IUP ED5; for Mean Selectivity Ratio MAP ED20/IUP ED5: anesthetized dogs, iv
Source text: as §1, §2
Dogs with chronic telemetry implants anesthetized as described above were placed in dorsal recumbency and a balloon catheter was inserted into the urethral orifice and advanced approximately 15 cm until the tip was well inside the bladder. The balloon was then inflated with 1 ml of room air and the catheter slowly withdrawn until resistance (corresponding to the bladder neck) was evident. The balloon was then deflated and the catheter withdrawn additional 2 cm. The balloon was then reinflated and its catheter port connected to a Gould Statham P23Dd pressure transducer interfaced to a computerized data acquisition system (Modular Instruments, Inc., Malvern, Pa.) for the measurement of the intraurethral pressure. Increasing iv doses of test agonists were administered and the maximum effect of each dose on IUP was recorded. The effect of each dose was allowed to return to baseline before the next dose was given.
as §3

[5] = target: T3, α1b (hamster receptor expressed in mouse fibroblasts) (Mesocricetus auratus, UniProt P18841); experiment: Radioligand binding, [3H]-prazosin, α1b
T3 construct: expressed in transfected cells; host or cells: mouse fibroblasts
T3 sequence (P18841 1-515): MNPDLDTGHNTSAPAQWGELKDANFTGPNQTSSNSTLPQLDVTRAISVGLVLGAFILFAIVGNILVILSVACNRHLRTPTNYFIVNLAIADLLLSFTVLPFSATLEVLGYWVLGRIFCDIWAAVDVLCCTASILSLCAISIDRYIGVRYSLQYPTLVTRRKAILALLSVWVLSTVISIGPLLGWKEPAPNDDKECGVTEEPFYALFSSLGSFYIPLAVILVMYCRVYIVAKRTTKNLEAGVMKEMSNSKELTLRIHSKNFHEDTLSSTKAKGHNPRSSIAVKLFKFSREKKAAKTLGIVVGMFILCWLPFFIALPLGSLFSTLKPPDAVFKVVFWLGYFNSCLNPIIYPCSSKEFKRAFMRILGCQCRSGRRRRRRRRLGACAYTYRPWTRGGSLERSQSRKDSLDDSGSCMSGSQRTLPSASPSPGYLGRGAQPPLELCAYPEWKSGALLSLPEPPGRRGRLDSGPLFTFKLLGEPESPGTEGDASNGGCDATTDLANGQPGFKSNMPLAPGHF
Procedure: as §4

[6] = rat receptor expressed in mouse fibroblasts, [3H]-prazosin, read-out: Radioligand Binding Ki α1d (Rat)
[7] = iv dose causing a maximum increase in IUP of 5 mm Hg, anesthetized female Beagle dogs
[8] = hamster receptor expressed in mouse fibroblasts, [3H]-prazosin, read-out: Radioligand Binding Ki α1b (Hamster)

Compound | Mean MAP ED20 (anesthetized dogs [1]) [nmol/kg] | ED (5 mm Hg) (anesthetized dogs [4]; [7]) [µmol/kg] | Ki [5, 8] [µM] | melting point [°C] | also measured
CCS(=O)(=O)Nc1cc(F)cc2c1OCCC2c1c[nH]cn1.O=C(O)/C=C\C(=O)O (stereo not shown) [Example 80, N-[6-fluoro-4-(1H-imidazol-4-yl)-3,4-dihydro-2H-chromen-8-yl]ethanesulfonamide, Maleate] | 125.78 | 0.113 | 10 |  | Ki [2, 6]: 1.59 µM; Ki [3]: 378 nM; Mean Selectivity Ratio MAP ED20/IUP ED5 (anesthetized dogs [4]): 1.12
CS(=O)(=O)Nc1cccc2c1OCCC2c1c[nH]cn1.O=C(O)/C=C\C(=O)O (single isomer, unassigned; (+)) [Example 93, (+) N-[4-(1H-imidazol-4-yl)-3,4-dihydro-2H-chromen-8-yl]methanesulfonamide Maleate] |  | 0.038 |  | 205 to 208 | 
CCS(=O)(=O)Nc1cccc2c1CCC2c1c[nH]cn1.O=C(O)/C=C\C(=O)O (stereo not shown) [Example 39, N-[1-(1H-imidazol-4-yl)-2,3-dihydro-1H-inden-4-yl]ethanesulfonamide, Maleate] | 5.6 |  |  | 148 to 149 | 
CCS(=O)(=O)Nc1cccc2c1CCCC2c1c[nH]cn1.O=C(O)/C=C\C(=O)O (single isomer, unassigned; (-)) [Example 34, (−)-N-[5-(1H-imidazol-4-yl)-5,6,7,8-tetrahydro-1-naphthalenyl]ethanesulfonamide, Maleate] |  |  |  | 129 to 130 | Mean MAP ED20 (anesthetized dogs [1]; Maleate): >1000 nmol/kg; Ki ([5]; hamster receptor expressed in mouse fibroblasts, [3H]-prazosin, Maleate, read-out: Radioligand Binding Ki α1b (Hamster)): 10 µM
Cl.Cn1cnc(C2CCCc3c(NS(C)(=O)=O)cccc32)c1 (stereo not shown) [Example 14, N-[5,6,7,8-tetrahydro-5-(1-methyl-1H-imidazol-4-yl)-1-naphthalenyl]methanesulfonamide, Hydrochloride] | >1000 |  |  | 130 to 135 | 
CN(c1cccc2c1CCCC2c1c[nH]cn1)S(C)(=O)=O.O=C(O)/C=C\C(=O)O (stereo not shown) [Example 15, N-[5-(1H-imidazol-4-yl)-5,6,7,8-tetrahydro-1-naphthalenyl]-N-methylmethanesulfonamide, Maleate] | 225 | 0.0919 | 10 |  | 
COc1ccc(NS(C)(=O)=O)c2c1C(c1c[nH]cn1)CCC2 (stereo not shown) [Example 26, N-[5,6,7,8-tetrahydro-(1H-imidazol-4-yl)-4-methoxy-1-naphthalenyl]methanesulfonamide, Maleate] |  |  | 10 |  | Ki [2, 6]: 10 µM; Mean IUP ED5 (anesthetized dogs [4]; [7]): 653 nmol/kg
CC(=O)Nc1cccc2c1CCCC2c1c[nH]cn1.O=C(O)/C=C\C(=O)O (stereo not shown) [Example 16, N-[5,6,7,8-tetrahydro-5-(1H-imidazol-4-yl)-1-naphthalenyl]acetamide, Maleate] | 220 |  |  | 159 to 160 | 
CS(=O)(=O)Nc1ccc(F)c2c1CCCC2c1c[nH]cn1.O=C(O)/C=C\C(=O)O (stereo not shown) [Example 44, N-[4-fluoro-5-(1H-imidazol-4-yl)-5,6,7,8-tetrahydro-1-naphthalenyl]methanesulfonamide, Maleate] | 588 | 0.892 | 10 | 182 to 186 | 
CS(=O)(=O)Nc1cccc2c1CCC[C@@H]2c1c[nH]cn1 [Example 10, (−)-N-[(5S)-5-(1H-imidazol-4-yl)-5,6,7,8-tetrahydro-1-naphthalenyl]methanesulfonamide] | >1000 | > 1 |  | 118 to 123 | 
CCS(=O)(=O)Nc1cc(Cl)cc2c1CCCC2c1c[nH]cn1 (stereo not shown) [Example 132, N-[3-chloro-5-(1H-imidazol-4-yl)-5,6,7,8-tetrahydro-1-naphthalenyl]ethanesulfonamide] | 47.7 | 0.019 |  |  | Ki [2]: 0.367 µM; Ki [3]: 47 nM; Mean Selectivity Ratio MAP ED20/IUP ED5 (anesthetized dogs [4]): 2.5; Ki [5]: 10 µM
C=C(c1cccc(NS(=O)(=O)CC)c1)c1c[nH]cn1.O=C(O)/C=C\C(=O)O [Example 45, N-{3-[1-(1H-imidazol-4-yl)vinyl]phenyl}ethanesulfonamide, Maleate] | 633 | 0.273 |  |  | 
CCS(=O)(=O)Nc1cccc2c1CCCC2c1c[nH]cn1.O=C(O)/C=C\C(=O)O (single isomer, unassigned; (+)) [Example 33, (+)-N-[5-(1H-imidazol-4-yl)-5,6,7,8-tetrahydro-1-naphthalenyl]ethanesulfonamide, Maleate] |  |  |  |  | Mean MAP ED20 (anesthetized dogs [1]; Maleate): 34.0 nmol/kg
O=C(Nc1cccc2c1CCCC2c1c[nH]cn1)C(F)(F)F.O=C(O)/C=C\C(=O)O (stereo not shown) [Example 17, 2,2,2-trifluoro-N-[5-(1H-imidazol-4-yl)-5,6,7,8-tetrahydro-1-naphthalenyl]acetamide, maleate] | 216 | 0.188 | 10 |  | 
CCS(=O)(=O)Nc1cccc2c1COC2c1c[nH]cn1.O=C(O)/C=C\C(=O)O (stereo not shown) [Example 87, N-[1-(1H-imidazol-4-yl)-1,3-dihydro-2-benzofuran-4-yl]ethanesulfonamide Maleate] |  |  |  | 95 to 98 | Ki [2]: 10 µM; Ki [3]: 936 nM; Ki [5]: 10 µM
